Experimental data as given in US6812230B2, “Non-peptide CCR1 receptor antagonists for the treatment of progressive renal fibrosis” (Schering Aktiengesellschaft, priority 2001, dated 2004).

What was measured:
[1] = tested on: renal CCR1, CCR2, CCR5 and collagen I mRNA; experiment: Mouse UUO model: renal chemokine receptor and collagen I mRNA expression by real-time quantitative RT-PCR; assay type: in vivo, C57BL/6 mice; conditions: 10 days following UUO
Method: (§1) Contralateral kidneys served as intraindividual controls.
From each mouse, a specimen of both kidneys was snap frozen in liquid nitrogen and stored at −80° C. Total RNA was prepared as described in Chomczynski, P. and Sacci, N., Anal. Biochem. (1987), Vol. 162, pp. 156-159. The RNA pellet was air-dried, dissolved in DEPC-treated water, and stored at −80° C. One μg of total RNA was subjected to random-primed (Hexamer, Roche) reverse transcription at 42° C. for 1 hour using a modified MMLV reverse transcriptase (Superscript, Life Technologies). Real time RT-PCR was performed on a TaqMan ABI 7700 Sequence Detection System (PE Biosystems) using a heat-activated Taq DNA polymerase (Amplitaq Gold, PE Biosystems). Thermal cycler conditions contained holds at 50° C. for 2 minutes and 95° C. for 10 minutes followed by 40 cycles of 95° C. for 15 seconds and 60° C. for 60 seconds. GAPDH was used as reference gene. The following oligonucleotide primers (300 nM) and probes (100 nM) (PE Biosystems) were used: (a) murine collagen 1α1 (gb X54876; bp 1984-2102); forward primer: 5′-[…]-3′ (SEQ ID NO: 1); reverse primer: 5′-[…]-3′ (SEQ ID NO: 2); internal fluorescence labeled probe (FAM): 5′-[…]-3′ (SEQ ID NO: 3); (b) murine GAPDH (gb M32599, bp 730-836); forward primer: 5′-[…]-3′ (SEQ ID NO: 4); reverse primer: 5′-[…]-3′ (SEQ ID NO: 5); internal fluorescence labeled probe (VIC): 5′-[…]-3′ (SEQ ID NO: 6); (c) murine CCR1 (gb NM_009912, bp 487-586); forward primer: 5′-[…]-3′ (SEQ ID NO: 7); reverse primer: 5′-[…]-3′ (SEQ ID NO: 8); internal fluorescence labeled probe (T1): 5′-[…]-3′ (SEQ ID NO: 9); (d) murine CCR2 (gb NM_009915, bp 984-1095); forward primer: 5′-[…]-3′ (SEQ ID NO: 10); reverse primer: 5′-[…]-3′ (SEQ ID NO: 11); internal fluorescence labeled probe (T1, FAM): 5′-[…]-3′ (SEQ ID NO: 12); and (e) murine CCR5 (gb D83648, bp 1065-1191); forward primer: 5′-[…]-3′ (SEQ ID NO: 13); reverse primer: 5′-[…]-3′ (SEQ ID NO: 14); internal fluorescence labeled probe (T1, FAM): 5′-[…]-3′ (SEQ ID NO: 15).

collagen I protein = experiment: Mouse UUO model: collagen I protein expression by Western blotting; assay type: in vivo, C57BL/6 mice; conditions: 10 days following UUO (UUO BX 1-10 d), Western blot
Method: as §1
From each mouse, a specimen of both kidneys was snap frozen in liquid nitrogen and stored at −80° C. Kidneys were homogenized in RIPA buffer (50 mM Tris-HCl, pH 8.0, 1% Nonidet P40, 0.5% sodium deoxycholate, 150 mM NaCl, 0.1% SDS, complete Protease-inhibitor tablet (Roche)). Extracted proteins were boiled in loading buffer for 10 minutes, resolved by 8% SDS-PAGE under reducing conditions and transferred to an Immobilon-P membrane (Millipore). After blocking, the filter was incubated with the rabbit polyclonal anti-collagen I antibody (1:1000 in blocking solution, Chemicon) and immune complexes were visualized using horseradish peroxidase-conjugated goat anti-rabbit antibody (1:5000 in blocking solution, Jackson ImmunoResearch) and then processed for detection by enhanced chemiluminescence (ECL, Amersham Pharmacia).

For C[C@@H]1CN(Cc2ccc(F)cc2)CCN1C(=O)COc1ccc(Cl)cc1NC(N)=O [BX471, (2R)-1-((4-chloro-2-(ureido)phenoxy)methyl)carbonyl-2-methyl-4-(4-fluorobenzyl)piperazine], the “renal collagen I mRNA expression in obstructed kidneys vs vehicle” value ([1]; p<0.05) was “significantly reduced”, the “renal CCR5 mRNA expression in obstructed kidneys vs vehicle” value ([1]; p=0.003) was “significantly reduced” and the “renal CCR1 mRNA expression in obstructed kidneys vs vehicle” value ([1]; p=0.005) was “significantly reduced”. For the same compound, the “renal CCR2 mRNA expression in obstructed kidneys vs vehicle” value ([1]; p=0.07) was “reduced, although this decrease did not reach statistical significance” and the “collagen I protein in renal extracts from the obstructed kidneys vs vehicle” value (collagen I protein) was “decrease”.
